Experimental data: paper PMC7204524 (Tetrahedron, 2020)

Target: T1, T. brucei methionyl-tRNA synthetase (TbMetRS) (Trypanosoma brucei, UniProt Q38C91)
T1 sequence (Q38C91 1-773): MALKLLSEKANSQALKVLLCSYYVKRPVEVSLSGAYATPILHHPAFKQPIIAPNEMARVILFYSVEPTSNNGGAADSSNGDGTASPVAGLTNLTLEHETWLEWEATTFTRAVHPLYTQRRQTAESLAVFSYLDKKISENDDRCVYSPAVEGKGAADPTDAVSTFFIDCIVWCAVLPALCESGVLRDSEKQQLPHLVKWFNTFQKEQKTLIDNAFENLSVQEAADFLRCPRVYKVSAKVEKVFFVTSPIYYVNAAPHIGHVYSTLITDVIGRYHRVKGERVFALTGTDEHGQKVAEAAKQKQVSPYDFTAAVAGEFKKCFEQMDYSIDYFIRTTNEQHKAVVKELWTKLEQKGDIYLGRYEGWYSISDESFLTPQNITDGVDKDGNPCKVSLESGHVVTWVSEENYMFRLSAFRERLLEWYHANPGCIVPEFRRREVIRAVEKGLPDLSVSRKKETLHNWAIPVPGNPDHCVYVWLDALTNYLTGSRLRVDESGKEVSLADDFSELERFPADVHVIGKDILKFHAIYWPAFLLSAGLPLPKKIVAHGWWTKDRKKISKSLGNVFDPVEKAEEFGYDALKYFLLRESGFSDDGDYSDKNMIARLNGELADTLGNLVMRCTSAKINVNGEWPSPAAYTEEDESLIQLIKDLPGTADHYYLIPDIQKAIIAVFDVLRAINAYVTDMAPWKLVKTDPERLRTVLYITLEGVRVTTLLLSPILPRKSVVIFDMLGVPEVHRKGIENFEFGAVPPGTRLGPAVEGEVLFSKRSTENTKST
Assay: colorimetric pyrophosphatase-coupled inhibition assay
Format: biochemical

Structure (SMILES): C[C@@H](O)[C@@H]1C(=O)N(CCc2c[nH]c3ccccc23)CC[C@@H]1N(C)Cc1cc(Cl)cc(Cl)c1 (racemic) [14a, (3R,4S)-1-(2-(1H-Indol-3-yl)ethyl)-4-((3,5-dichlorobenzyl)(methyl)amino)-3-((R)-1-hydroxyethyl)piperidin-2-one]
- %: 15–30 % inhibition at 200 μM
